Experiment [1] concerns atmyb77 T-DNA insertion lines (KO). As to the kind of experiment: Lateral root number with exogenous auxin, atmyb77 T-DNA insertion line. The format is in vivo, Arabidopsis. The following applies: mean ± SE. Here is the method:
(§1) FIG. 4. Reduced AtMyb77 expression reduces lateral root growth sensitivity to exogenous auxin. (A) atmyb77-1 T-DNA insertion line and wild-type Arabidopsis Col-0 grown on MS plates with no added auxin have the same number and length of lateral roots. (B) atmyb77-1 has more lateral roots than wildtype Col-0 with 100 nM IAA and (C) 80 nM 2, 4-D. (D) Mean lateral root numbers per primary root under control conditions and with 100 nM IAA and 80 nM 2, 4-D (n=100±SE).
(§2) The effects of exogenous auxin on lateral root growth under control conditions were also tested in wild-type and atmyb77-1 plants. Wildtype Col-0 and atmyb77-1 plants had the same number of lateral roots and the same primary root length under control conditions (FIGS. 4A and D; Table I). […] Primary root length was the same between lines for each treatment.

In a further experiment the test system is wildtype (Col-0). As to the kind of experiment: Lateral root number with exogenous auxin, wildtype. The following applies: for lateral root number: Col-0, mean ± SE. The format is in vivo, Arabidopsis. Here is the method:
as §1, §2

In experiment [2] the test system is AtMyb77 promoter::GUS plants. Nature of the experiment: AtMyb77 promoter::GUS reporter expression in roots after auxin. The following applies: 100 nM IAA, lateral roots, one day. The format is in vivo, Arabidopsis. The procedure:
To localize GUS activity, plants were stained with 1 mM X-Gluc solution 4 days after germination (DAG) (Vicente-Agullo et al. 2004) and were de-stained (Malamy and Benfey 1997). The pictures were taken using a Nikon SMZ1500 dissecting microscope (Nikon). Plants were transferred 3-DAG to full nutrient (1.75 mM KCl) or to low K plates (10 μM KCl), and then grown for 7 days before staining. For auxin treatment, plants were transferred 6-DAG to full nutrient plates (no auxin), and to plates containing 100 nM of IAA, or 80 nM of 2, 4-D, and then grown for one day before staining. Incubation time was 60 minutes and protein concentration was calculated with the CB-X kit (GenoTech).
Expression of AtMyb77-promoter driven GUS expression was detected in roots (FIG. 3) and leaves of seedlings. In roots the expression was localized to the inner cell layers of the primary root including the stele (FIGS. 3A and B). At the tip of primary roots expression of GUS was also seen in the root cap cells (FIG. 3A). Throughout the root expression was visible in the vascular tissue. An interesting pattern of expression was observed during the development of lateral roots. Initially when the lateral roots emerge, the reporter gene expression was observed above and below the emerging lateral root primordia in the cortical cells (FIG. 3C). […]

Experiment [3] has as its system atmyb77-1 T-DNA insertion line roots. Nature of the experiment: Northern blot of auxin regulated genes in roots, atmyb77-1. In kind it is in vivo, Arabidopsis. The following applies: 20 μM IAA; 6, 30, 54 h; atmyb77-1 roots. Here is the method:
(§3) FIG. 6. Northern blots of Arabidopsis wildtype Col-0 and T-DNA insertion line atmyb77-1 roots grown in hydroponic conditions for 7 weeks and treated with 20 μM IAA for 0, 6, 30 and 54 hours. Northern blots were probed with 3′ probes from auxin regulated and related genes. Ribosomal RNA loading control shown at bottom.
(§4) Plants were initially grown in nutrient solutions using a rock wool system (Gibeaut et al. 1997) for six weeks at 22° C. with 8 h daylight at 200 μmol.m-2.s-1. Three weeks after germination, plants were transferred to hydroponic tanks containing nutrient medium (Shin et al. 2005) with aeration. Plants were then exposed to a final concentration of 20 μM of IAA (Sigma-Aldrich, St.Louis, Mo.) in the nutrient solutions. After 6 h, 30 h and 54 h roots were harvested. For probes, cDNA fragments were amplified from Arabidopsis cDNA by PCR using primers for the indicated genes as follows: […]
(§5) The amplified cDNAs were labeled with α-^32P-dCTP (Amersham) and Northern blot analyses were performed as described (Shin et al. 2005).

In a further experiment the test system is wildtype Col-0 roots. Nature of the experiment: Northern blot of auxin regulated genes in roots, wildtype. The format is in vivo, Arabidopsis. To be noted: 20 μM IAA. The procedure: as §3, §4, §5
For a further experiment, the system named is MYBcore element. Nature of the experiment: Gel mobility shift assay, MYBcore. In kind it is binding, Arabidopsis. The following applies: 100 ng AtMyb77::His, 3x repeat labeled oligo. Here is the method: (§6) An AtMyb77 cDNA fragment was amplified by PCR and cloned into the Ndel and SacI sites of the pET28 vector (Novagen, Madison, Wis., USA). The primer set used for the amplification was 5′-[…]-3′ (SEQ ID NO:37) and 5′-[…]-3′ (SEQ ID NO:38). The resulting in-frame fusion was transformed into Escherichia coli strain BL21 (DE3). Overexpression of AtMyb77::His was induced by 0.5 mM isopropyl-β-D-thiogalactoside at 20° C. for 4 h. Bacteria were pelleted after the induction period, suspended in lysis buffer (50 mM NaH2PO4H2O, 300 mM NaCl, 10 mM Imidazole) and subjected to sonication on ice for 1 min. Bacterial lysates were then centrifuged. The His tagged fusion protein was recovered by affinity chromatography on Nickel-NTA (Sigma-Aldrich, St. Louis, Mo., USA) and the purified protein was used for gel mobility shift assays.
(§7) Both strands of the MRE element ([…]; SEQ ID NO:39) (Hoerena et al. 1998), the MYBcore element ([…]; SEQ ID NO:40) (Larsen 2003), mutated MRE (mMRE) element ([…]; SEQ ID NO:41), mutated MYBcore (mMYBcore) element ([…]; SEQ ID NO:42) and GCC box ([…]; SEQ ID NO:43; Fujimotoa et al., 2000) were synthesized and were end-labeled with […] (Amersham, Pittsburgh, Pa., USA) by T4 polynucleotide kinase (New England Biolabs, Beverly, Mass., USA) at 37° C. for 1 h. […]

The next experiment deals with GCC box. Nature of the experiment: Gel mobility shift assay, GCC box. In kind it is binding. The following applies: band shift. Here is the method: as §6, §7
The subject of another experiment is MRE element. As to the kind of experiment: Gel mobility shift assay, MRE. In kind it is binding, Arabidopsis. The following applies: 100 ng AtMyb77::His, 3x repeat labeled oligo. Here is the method:
as §6, §7

Experiment [4] relates to mutated MYBcore (mMYBcore) element. As to the kind of experiment: Gel mobility shift assay, mutated MYBcore. In kind it is binding. To be noted: band shift. Here is the method: as §6, §7
Experiment [5] relates to mutated MRE (mMRE) element. Nature of the experiment: Gel mobility shift assay, mutated MRE. In kind it is binding. To be noted: band shift. Here is the method: as §6, §7

These results are taken from patent publication US20080196124A1, “Plant Growth Hormone Regulated Transcription Factors and Promoters Thereof” (DONALD DANFORTH PLANT SCIENCE CENTER, priority 2006, published 2008).

On to `O=C(O)Cc1c[nH]c2ccccc12` [IAA, indoleacetic acid], for which the lateral root number in experiment [1] (100 nM IAA) was 13.57 ± 0.38c; in the experiment on wildtype (Col-0) (100 nM IAA), 10.05 ± 0.55b. Moreover, the “lateral root formation, wildtype compared to atmyb77-1” value in the experiment on wildtype (Col-0) (seedlings treated with 100 nM IAA) is “reduced significantly more in the wildtype”. Also, the “AtMyb77 promoter driven GUS expression” value in [2] was “increase in the expression”. In addition, in [3], the “induction of auxin regulated genes” value is recorded as “greatly attenuated or abolished”. Also, the “expression of IAA19, IAA1, IAA28, AUX1, SAUR-AC1, AXR1, ARF7, AtMyb77 and Tir1” value in the experiment on wildtype Col-0 roots (6, 30, 54 h vs 0 h, wild-type roots) is on record as “Clear induction of expression”. For the same compound, the PIN1 expression entry with wildtype Col-0 roots (after 54 hours, wildtype roots) is reported as “not induced”.

For the compound “AtMyb77: HIS tagged AtMyb77 R2R3 Myb transcription factor protein (SEQ ID NO:10) purified from E. coli”, in the experiment on MYBcore element, the “binding to MYBcore sequence (band shift)” value is on record as “bound”. Besides, the “binding to ethylene binding element (GCC)” value with GCC box is on record as “no interaction”. Besides, in the experiment on MRE element, the “binding to MRE sequence (band shift)” value is listed as “bound”. The “binding to MYBcore with single nucleotide change” value in experiment [4] was “eliminated the interaction and binding”. Further, the “binding to MRE with single nucleotide change” value in experiment [5] was “eliminated the interaction and binding”.

As to `O=C(O)COc1ccc(Cl)cc1Cl` [2,4,-D, 2,4-dichlorophenoxyacetic acid], the lateral root number in experiment [1] (80 nM 2,4-D) stood at 8.80 ± 0.19b; in the experiment on wildtype (Col-0) (80 nM 2,4-D) it was 7.41 ± 0.20 days. The “lateral root formation, wildtype compared to atmyb77-1” value in the experiment on wildtype (Col-0) (seedlings treated with 80 nM 2,4-D) is reported as “reduced significantly more in the wildtype”.
